Laboratory results taken from patent US20040023907A1, “Infection model” (priority 2000, published 2004).
Entries after “also recorded” stand apart in the source; their conditions may differ.

Tests used:
[1] = test system: candida albicans (virulent strain Sc5314, avirulent strain Can34); assay: Influence of antimycotics on adhesion of candida albicans to in vitro skin and intestinal test systems (co-cultivation, colony count); format: cell-based; details: for influence on growth rates of the pathogen: co-cultivation with in vitro skin and intestinal test systems in presence of antimycotic; for influence on the adhesion of the pathogen: human in vitro skin and intestinal test systems, submerse culture, antimycotic 0.1, 0.5, 1.0, 2.0 μg/μl, colony count vs samples without antimycotic
Excerpt: In an especially preferred embodiment, the present invention relates to the co-cultivation of the human-pathological microorganism candida albicans with the human in vitro skin test system or the human in vitro intestinal test system in order to investigate the first stage of the infection process, i.e. the adhesion of the pathogen to the skin or intestinal cells. The adhesion of the pathogen is investigated using the virulent candida strain Sc5314 and the avirulent candida strain Can34 that have already been studied in a mouse macrophage model (Longitudinal et al., Cell, 90 (1997), 939-949). The in vitro skin test system or the in vitro intestinal test system is in each case inoculated in submerse culture with about 10^3 pathogenic organisms and cultivated with shaking. At defined times, for example every 30 minutes (up to a maximum of 4 hours), aliquot amounts are removed and plated out into Petri dishes with appropriate nutrient media, for example YPD full medium (Difco). After an appropriate incubation time, the number of colonies in the Petri dishes is determined. The adhesion of the pathogens on the in vitro organ test systems can be determined based on the comparison between the determined colony count and the originally inoculated number of pathogens.
In a preferred embodiment, the method for investigating the adhesion of candida on the in vitro intestinal test system according to the invention and on the in vitro skin test system according to the invention is modified in such a way that the co-cultivation preparation contains an antimycotic, in particular amphothericin B or fluconazole.
In order to determine the adhesion of the pathogen on cells, 12 each inserts of the human in vitro skin test system held in submerse culture or 12 each inserts of the in vitro intestinal test system held in submerse culture were infected each with 10^3 pathogenic organisms of the virulent candida strain Sc5314 or of the avirulent candida strain Can34 (Longitudinal et al., Cell 90 (1997), […]). The inserts were then incubated with shaking at 37° C. for 30, 60, 90, 120, 150, or 180 min.
At the specified times, the supernatant was removed and plated out in Petri dishes with YPD nutrient medium. After an incubation period of 2 days, the colonies in the Petri dishes were counted. Based on the comparison between the determined colony count and originally inoculated number of pathogens, it was determined that approximately 95% of the virulent strain and 10% of the avirulent strain adhered to the in vitro skin model after 2 hours.
In order to determine the influence of antimycotics on the adhesion of candida albicans on skin and intestinal cells, 12 inserts of the in vitro skin test system held in submerse culture and 12 inserts of the in vitro intestinal test system each were infected with 10^3 pathogenic organisms of the virulent candida strain Sc5314 or the avirulent candida strain Can34. Amphotericin B was added to 5 inserts in a concentration of 0.1, 0.5, 1.0, and 2.0 μg/μl, and fluconazole was added to 5 inserts in a concentration of 0.1, 0.5, 1.0, and 2.0 μg/μl. The inserts were then incubated with shaking at 37° C. for up to 3 days.
After 16, 24, 72, 86, and 98 hours, aliquot amounts were removed and plated out in Petri dishes with YPD nutrient media. After an incubation period of 2 days, the colonies in the Petri dishes were counted.

[2] = test system: candida albicans (virulent strain Sc5314, avirulent strain Can34); assay: Influence of antimycotics on penetration/invasion of candida albicans into in vitro skin and intestinal test systems (histology, PAS staining); format: cell-based; details: human in vitro skin and intestinal test systems, antimycotic 0.1, 0.5, 1.0, 2.0 μg/μl, histology after approximately 18 to 24 hours
Excerpt: In another particularly preferred embodiment, the present invention relates to the co-cultivation of the human-pathogenic microorganism candida albicans with the human in vitro skin test system prepared according to the invention or with the human in vitro intestinal test prepared according to the invention in order to investigate another stage of the infection process, i.e. the penetration/invasion of the pathogen into cells. For this, the organoid tissue test systems are co-cultivated using the airlift process with the previously described avirulent and virulent pathogen strains. The pathogen is preferably fixed with a cell count of 10^3/ml in 1% agar, and agar pieces with a diameter of 4 mm are placed onto the organoid tissue test systems for up to 98 hours. The penetration of the pathogen into the organoid structures was studied after 16 hours, 24 hours, 72 hours, 86 hours, and 98 hours using histological methods on thin sections, employing the PAS staining method (McManaus, Romeis, 17th ed., page 393). Using the histological sections, the invasion process of the virulent candida strain into the deeper layers of the connective-tissue-like matrix can be documented.
In another preferred embodiment, the method for investigating the penetration/invasion of candida with the in vitro intestinal test system and the in vitro skin test system was modified in such a way that the co-cultivation preparation contained amphothericin B or fluconazole.
In order to determine the penetration of the pathogen, 12 inserts of the in vitro skin system held in airlift culture and 12 inserts of the in vitro intestinal system held in airlift culture each were infected with 10^3 pathogenic organisms of the virulent candida strain Sc5314 or the avirulent candida strain Can34. The inserts then were incubated up to 3 days at 37° C.
The penetration of the pathogen into the organoid structures was investigated after about 18 to 24 hours using histological methods on thin sections, employing the PAS staining method both for the in vitro skin system as well as for the in vitro intestinal system. […]

Compound | influence on growth rates of the pathogen [1] | influence on the adhesion of the pathogen [1] | influence on the adhesion of the pathogen ([1]; listed as amphothericin B) | invasion (penetration) of the virulent candida strain into the organoid structures [2] | invasion (penetration) of the virulent candida strain into the organoid structures ([2]; listed as amphothericin B)
C[C@@H]1[C@H](O)[C@@H](C)/C=C/C=C/C=C/C=C/C=C/C=C/C=C/[C@H](O[C@@H]2O[C@H](C)[C@@H](O)[C@H](N)[C@@H]2O)C[C@@H]2O[C@](O)(C[C@@H](O)C[C@@H](O)[C@H](O)CC[C@@H](O)C[C@@H](O)CC(=O)O[C@H]1C)C[C@H](O)[C@H]2C(=O)O [amphotericin B] | influenced its growth rates | adhesion of the virulent candida strain could only be prevented by adding amphotericin B and fluconazole and by an inhibition of growth | no influence on the adhesion of the pathogen | apparently prevents the invasion of the virulent candida strain by inhibiting its growth | could only be prevented with a complete inhibition of growth
OC(Cn1cncn1)(Cn1cncn1)c1ccc(F)cc1F [fluconazole] | influenced its growth rates | no influence on the adhesion of the pathogen; also recorded: adhesion of the virulent candida strain could only be prevented by adding amphotericin B and fluconazole and by an inhibition of growth |  | could only be prevented with a complete inhibition of growth; also recorded: apparently prevents the invasion of the virulent candida strain by inhibiting its growth | 
